Our source for the TGI and GI50 values is PubChem BioAssay (NCI).

What all share (assay): NCI anticancer screen, dose series, 48 h
In test [1] the test system is A498 renal.
Test [2] relates to HL-60(TB) leukemia.
Test [3] deals with HOP-62 NSCLC.
The test system of test [4] is HS 578T breast.
Test [5] relates to K-562 leukemia.
Test [6] has as its system MALME-3M melanoma.
Test [7] relates to NCI-H522 lung.
Test [8] deals with OVCAR-8 ovarian.
For test [9], the system named is T-47D breast.
The test system of test [10] is UO-31 renal.

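1) Cells in 96-well plates. 2) Compound, 48 h, 5 concentrations. 3) Linear interpolation between surrounding doses. 4) Unreached endpoint = highest concentration. Abbreviation: GI50, concentration required for 50% inhibition of growth. TGI: concentration producing complete growth inhibition.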

Regarding `CCC1(O)C(=O)OCc2c1cc1n(c2=O)Cc2cc3c(N)cccc3nc2-1` (configuration not stated), the TGI in [1] is 1.39 µM; in test [2], 0.111 µM; in test [3], 0.0748 µM; in test [4], 22.8 µM; in test [5], more than 48.2 µM; in test [6] it was 5.67 µM. The TGI in [7] was determined as 0.763 µM; in test [8], 7.21 µM; in test [9], 0.654 µM; in test [10], 0.126 µM. Besides, the GI50 in test [7] was 0.0231 µM; in [9], 0.0191 µM.
Consider `COc1ccc(-n2c(SCc3cc(OC)c(OC)c(OC)c3)nc3ccc(C)cc3c2=O)cc1`, for which the GI50 is 1.95 µM in [1]; 3.74 µM in test [2]; 29.1 µM in test [3]; 6.06 µM in test [4]; 3.89 µM in test [5]; 59.8 µM in [6]. Besides, the GI50 is 4.41 µM in [7], more than 100 µM in [8], 5.46 µM in test [9] and 5.56 µM in [10]. Besides, the TGI is 16.9 µM in [1]; more than 100 µM in test [2]; more than 100 µM in test [3]; more than 100 µM in test [4]; more than 100 µM in test [5]; more than 100 µM in [6]. Besides, the TGI in [7], in test [8], in test [9] and in test [10] was more than 100 µM throughout.
For `Cn1cc(C2=C(c3cn(C)c4c(N)cccc34)C(=O)NC2=O)c2ccccc21`, the GI50 was 0.895 µM in test [1]; 1.05 µM in test [2]; 1.25 µM in test [3]; 0.618 µM in test [4]; 0.385 µM in test [5]; 9.53 µM in test [6]. In addition, the GI50 in test [7] was 0.996 µM; in test [8] it was 2.85 µM; in test [9], 1.31 µM; in [10], 1.1 µM. The TGI in [1] was 4.29 µM; in test [2], 7.28 µM; in [3], more than 15.2 µM; in test [4] it was 19 µM; in test [5], more than 25 µM; in [6] it was more than 25 µM. Besides, the TGI was more than 15 µM in test [7], more than 25 µM in test [8], 11.9 µM in test [9] and 10.5 µM in [10].
With `COc1cccc(NCc2nnc(Nc3ccc(Cl)cc3)c3ccccc23)c1`, the GI50 in test [1] is 1.27 µM; in test [2], 3.78 µM; in test [3] it was 2.06 µM; in test [4], 2.9 µM; in [5] it was 1.49 µM; in test [6] it was 1.22 µM. Further, the GI50 is 0.302 µM in test [7], 3.61 µM in test [8], 0.649 µM in test [9] and 0.608 µM in [10]. Besides, the TGI in [1] was found to be 4.42 µM; in test [2], 13.1 µM; in [3] it was 8.48 µM; in [4] it was 11.5 µM; in test [5], 13.1 µM; in [6], 6.23 µM. For the same compound, the TGI in test [7] amounted to 3.31 µM; in test [8], 14.7 µM; in test [9], 6.56 µM; in test [10] it was 5.28 µM.
Consider `CC(C)(C)C1=CC(=CC=C2C=CN(CCCCCCCCCCCO)C=C2)C=C(C(C)(C)C)C1=O`, for which the TGI in test [1] is 7.3 µM; in [2], 3.71 µM; in [3], 3.63 µM; in test [4] it was 4.23 µM; in test [5] it was 4.87 µM; in test [6] it was 3.51 µM. Also, the TGI in [7] stood at 1.29 µM; in test [8], 2.1 µM; in test [9], 2.7 µM; in test [10], 3.67 µM.
`Cc1[nH]c(N=Nc2ccccc2)nc1N=Nc1ccccc1`: the GI50 is 5.1 µM in [1]; 2.56 µM in [2]; 4.09 µM in test [3]; 12.8 µM in test [4]; 3.55 µM in test [5]; 2.27 µM in test [6]. Besides, the GI50 in test [7] was 2.69 µM; in test [8], 3.2 µM; in [9], 2.77 µM; in test [10] it was 1.34 µM. Besides, the TGI in test [1] was 25.6 µM; in [2], more than 23.6 µM; in test [3], 17.1 µM; in test [4] it was more than 34.8 µM; in test [5], more than 100 µM; in test [6], 8.06 µM. In addition, the TGI in test [7] is more than 34.5 µM; in [8] it was 53.1 µM; in test [9], more than 46.8 µM; in test [10], 13 µM.
`CN1C(NC(=O)c2ccc(Cl)nc2)=NS(=O)(=O)c2cc(Cl)ccc21`: the GI50 in test [1], in test [2], in test [3], in test [4], in test [5] and in test [6] was more than 100 µM each time. In addition, the GI50 in [7], in [8], in test [9] and in [10] was more than 100 µM in each case. Besides, the TGI in [1], in test [2], in test [3], in test [4], in test [5] and in test [6] was more than 100 µM throughout. In addition, the TGI in test [7], in test [8], in test [9] and in test [10] was more than 100 µM each time.
On to `COc1cc2c(/C=C3/C(=O)Nc4cccc(Cl)c43)c(Cl)n(Cc3ccccc3)c2cc1C`, for which the GI50 is 0.528 µM in [1]; 5.22 µM in [2]; 9.73 µM in test [3]; 4.34 µM in test [4]; 5.22 µM in test [5]; 14.2 µM in test [6]. In addition, the GI50 in test [7] was 4.46 µM; in test [8], 5.21 µM; in test [9], 14 µM; in [10], 5.69 µM. Further, the TGI is 9.03 µM in test [1]; more than 100 µM in test [2]; 53.9 µM in [3]; 66.5 µM in test [4]; more than 100 µM in [5]; 41.4 µM in test [6]. Also, the TGI was more than 82.2 µM in test [7], more than 71.9 µM in test [8], more than 100 µM in test [9] and more than 100 µM in test [10].
